This note sets out measurements from paper PMC2740427 (The Journal of Biological Chemistry, 2009).

Like-named read-outs stand apart in the source and are kept apart here.

In assay [1] the target is T1, MCT1 (Rattus norvegicus, UniProt P53987).
T1 sequence (P53987 1-494): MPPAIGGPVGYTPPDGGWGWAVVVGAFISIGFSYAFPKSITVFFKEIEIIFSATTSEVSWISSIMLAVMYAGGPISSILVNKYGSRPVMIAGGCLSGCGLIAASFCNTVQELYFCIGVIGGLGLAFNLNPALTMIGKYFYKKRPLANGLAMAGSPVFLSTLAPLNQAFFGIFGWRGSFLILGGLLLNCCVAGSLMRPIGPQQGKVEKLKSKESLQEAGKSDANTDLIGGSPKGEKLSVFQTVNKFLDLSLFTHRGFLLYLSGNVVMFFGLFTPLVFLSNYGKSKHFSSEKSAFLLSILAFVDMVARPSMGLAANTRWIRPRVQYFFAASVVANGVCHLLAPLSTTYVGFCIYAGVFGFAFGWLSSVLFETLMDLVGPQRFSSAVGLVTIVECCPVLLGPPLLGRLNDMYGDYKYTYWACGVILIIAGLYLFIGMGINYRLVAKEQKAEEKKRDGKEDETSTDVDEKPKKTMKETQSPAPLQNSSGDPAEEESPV
The format is cell-based. The following applies: read-out: % inhibition (irreversible) at 0.2 mM.

The target in assay [2] is T1, MCT1. Nature of the assay: inhibition of L-[…]lactate uptake in Xenopus oocytes, DIDS present in assay. The following applies: read-out: % inhibition (reversible) at 0.2 mM. The format is cell-based.

In general, inhibition refers to the share of the control response that was lost under treatment. `O=S(=O)(O)c1cc(N=C=S)ccc1/C=C/c1ccc(N=C=S)cc1S(=O)(=O)O` [DIDS]: the inhibition at 200 µM on MCT1 [1] and on MCT1 [2] was about 60% in each case.
